Measurements as given in ChEMBL document CHEMBL5385851, “Natural quinazolinones: From a treasure house to promising anticancer leads” (Eur J Med Chem, 2023).
Values after ≈ are worked out from the molar mass of the structure shown. One block for each molecule: values may come before it.

Legend:
DU-145 [1] = test: Growth inhibition of human DU-145 cells incubated for 24 hrs by sulforhodamine B assay; format: functional
NCI-N87 [2] = test: Cytotoxicity against human NCI-N87 cells measured after 72 hrs by Celltiter-Glo assay; format: functional, cell-based; conditions: NCI-N87, 72 h
HL-60 [3] = test: Cytotoxicity against human HL-60 cells assessed as reduction in cell growth incubated for 48 hrs by MTT assay; format: functional, cell-based; conditions: HL-60, 48 h
HT-29 [4] = test: Antiproliferative activity against human HT-29 cells assessed as reduction in cell viability after 72 hrs by MTT assay; format: functional, cell-based; conditions: HT-29, 72 h
P388 [5] = test: Antiproliferative activity against mouse P388 cells assessed as reduction in cell proliferation incubated for 48 hrs by MTT assay; format: functional, cell-based; conditions: P388, 48 h
HT-29 [6] = test: Cytotoxicity against human HT-29 cells assessed as cell growth inhibition by MTT assay; format: functional, cell-based
P388 [7] = test: Cytotoxicity against mouse P388 cells assessed as reduction in cell viability by SRB assay; format: functional; conditions: read-out: ED50 (the source's name)
[8] = target: Indoleamine 2,3-dioxygenase 1 (Homo sapiens, UniProt P14902); test: Inhibition of IDO1 in HEK293 cells; format: cell-based
Chain of Indoleamine 2,3-dioxygenase 1 (P14902 whole entry): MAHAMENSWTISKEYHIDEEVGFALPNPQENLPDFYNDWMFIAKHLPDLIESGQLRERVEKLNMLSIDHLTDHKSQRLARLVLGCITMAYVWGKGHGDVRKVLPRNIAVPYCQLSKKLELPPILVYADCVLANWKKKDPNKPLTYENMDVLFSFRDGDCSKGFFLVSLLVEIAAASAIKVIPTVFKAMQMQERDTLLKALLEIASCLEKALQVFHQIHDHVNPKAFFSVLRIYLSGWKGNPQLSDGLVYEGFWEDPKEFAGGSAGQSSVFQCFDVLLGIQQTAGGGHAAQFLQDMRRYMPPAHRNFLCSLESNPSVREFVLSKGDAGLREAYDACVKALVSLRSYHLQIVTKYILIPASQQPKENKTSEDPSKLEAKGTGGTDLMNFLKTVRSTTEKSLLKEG

HepG2 = test: Cytotoxicity against human HepG2 cells assessed as inhibition of cell growth by MTT based colorimetric analysis; format: functional
A-375 = test: Cytotoxicity against human A-375 cells assessed as inhibition of cell growth by MTT based colorimetric analysis; format: functional
HCT-116 [9] = test: Cytotoxicity against human HCT-116 cells assessed as inhibition of cell growth by MTT based colorimetric analysis; format: functional
A549 = test: Antiproliferative activity against human A549 cells assessed as reduction in cell growth in presence of doxorubicin by CellTiter-Glo luminescent assay; format: functional, cell-based
HL-60 [10] = test: Antiproliferative activity against human HL-60 cells assessed as reduction in cell viability incubated for 72 hrs by MTT assay; format: functional, cell-based; conditions: HL-60, 72 h
HL-60 [11] = test: Cytotoxicity against human HL-60 cells assessed as reduction in cell viability; format: functional, cell-based
NCI/ADR-RES [12] = test: Antiproliferative activity against human MCF7ADR cells assessed as cell growth inhibition incubated for 72 hrs by MTT assay; format: functional, cell-based
NCI-H1650 = test: Antiproliferative activity against human NCI-H1650 cells assessed as cell growth inhibition incubated for 72 hrs by MTT assay; format: functional, cell-based; conditions: NCI-H1650, 72 h
NCI-H1975 = test: Antiproliferative activity against human NCI-H1975 cells assessed as cell growth inhibition incubated for 72 hrs by MTT assay; format: functional, cell-based; conditions: NCI-H1975, 72 h
MCF7 [13] = test: Antiproliferative activity against human MCF7 cells assessed as cell growth inhibition incubated for 72 hrs by MTT assay; format: functional, cell-based; conditions: MCF7, 72 h
OVCAR-4 = test: Cytotoxicity against human OVCAR-4 cells assessed as cell growth inhibition; format: functional
Bel-7402 = test: Antiproliferative activity against human Bel-7402 cells assessed as inhibition of cell growth measured after 48 hrs by CCK-8 assay; format: functional, cell-based; conditions: Bel-7402, 48 h
HeLa = test: Cytotoxicity against human HeLa cells assessed as reduction in cell growth incubated for 48 hrs by MTT assay; format: functional, cell-based
HCT-116 [14] = test: Antiproliferative activity against human HCT-116 cells assessed as reduction in cell proliferation; format: functional, cell-based
HL-60 [15] = test: Antiproliferative activity against human HL-60 cells assessed as cell growth inhibition incubated for 72 hrs by MTT assay; format: functional, cell-based; conditions: HL-60, 72 h
MCF7 [16] = test: Cytotoxicity against human MCF7 cells assessed as reduction in cell growth incubated for 5 days by MTT assay; format: functional, cell-based; conditions: MCF7, 120 h
NCI/ADR-RES [17] = test: Antiproliferative activity against human NCI-ADR-RES cells assessed as inhibition of cell growth measured after 48 hrs by SRB assay; format: functional, cell-based
SF-295 = test: Growth inhibition against human SF-295 cells incubated for 48 hrs by sulforhodamine B assay; format: functional
HT-29 [18] = test: Growth inhibition of human HT-29 cells by SRB assay; format: functional
HCT-116 [19] = test: Anticancer activity against human HCT-116 cells assessed as cell growth inhibition; format: functional
K562 [20] = test: Growth inhibition of human K562 cells incubated for 48 hrs by sulforhodamine B assay; format: functional
HT-29 [21] = test: Cytotoxicity against human HT-29 cells assessed as reduction in cell viability by SRB assay; format: functional, cell-based
HL-60 [22] = test: Growth inhibition of human HL-60 cells incubated for 4 days by WST assay; format: functional; conditions: HL-60, 96 h, time 4 day
U-251 [23] = test: Growth inhibition of human U-251 cells by sulforhodamine B assay; format: functional; conditions: time 72 hrs
NCI-N87 [24] = test: Growth inhibition of human NCI-N87 cells assessed as reduction in cell viability measured after 72 hrs by MTT assay; format: functional
MDA-MB-231 = test: Antiproliferative activity against human MDA-MB-231 cells assessed as reduction in cell viability after 48 hrs by SRB assay; format: functional, cell-based; conditions: MDA-MB-231, 48 h
SMMC-7721 = test: Anticancer activity against human SMMC-7721 cells assessed as cell growth inhibition incubated for 48 hrs by CCK8 assay; format: functional, cell-based; conditions: SMMC-7721, 48 h
P388 [25] = test: Cytotoxicity against mouse P388 cells assessed as inhibition of cell growth incubated for 48 hrs by SRB assay; format: functional, cell-based; conditions: P388, 48 h
DU-145 [26] = test: Growth inhibition of human DU-145 cells incubated for 48 hrs by sulforhodamine B assay; format: functional
HUVEC = test: Cytotoxicity against HUVEC cells assessed as reduction in cell viability incubated for 48 hrs by MTT assay; format: functional, cell-based; conditions: Homo sapiens
MCF7 [27] = test: Antiproliferative activity against human MCF7 cells assessed as cell growth inhibition incubated for 48 hrs by MTT assay; format: functional, cell-based; conditions: MCF7, 48 h
MCF7 [28] = test: Growth inhibition of human MCF7 cells incubated for 48 hrs by SRB assay; format: functional
NCI-H522 = test: Growth inhibition of human NCI-H522 cells; format: functional
NCI/ADR-RES [29] = test: Growth inhibition of human MCF7ADR cells; format: functional
SW-620 = test: Growth inhibition of human SW620 cells; format: functional
A-431 = test: Anticancer activity against human A-431 cells assessed as reduction of cell viability incubated for 48 hrs by MTT assay; format: functional, cell-based; conditions: A-431, 48 h
SK-N-DZ = test: Anticancer activity against human SK-N-DZ cells assessed as cell growth inhibition measured after 72 hrs by DAPI staining based analysis; format: functional
M14 = test: Growth inhibition of human M14 cells; format: functional
SK-OV-3 = test: Growth inhibition of human SK-OV-3 cells by sulforhodamine B assay; format: functional
K562 [30] = test: Cytotoxicity against human K562 cells assessed reduction in cell growth incubated for 48 hrs by MTT assay; format: functional, cell-based; conditions: K562, 48 h
U-251 [31] = test: Growth inhibition of human U-251 cells; format: functional
U-937 = test: Cytotoxicity against human U-937 cells assessed reduction in cell growth incubated for 48 hrs by MTT assay; format: functional, cell-based; conditions: U-937, 48 h
DU-145 [32] = test: Growth inhibition of human DU-145 cells by sulforhodamine B assay; format: functional
A498 = test: Growth inhibition of human A498 cells by SRB method; format: functional
SH-SY5Y = test: Cytotoxicity against human SH-SY5Y cells assessed as reduction in cell viability; format: functional, cell-based
[33] = Antiproliferative activity against human LA-N-1 cells assessed as cell growth inhibition; format: functional, cell-based; conditions: LAN1

SMILES: CO[C@@H]1c2c([nH]c3ccccc23)-c2nc3ccccc3c(=O)n2[C@H]1O
IC50 (NCI-N87 [2]): 22.3 µM
IC50 (HL-60 [3]): 7.82 µM

SMILES: COc1cccc2c(=O)n3ccc4c5ccccc5[nH]c4c3nc12
IC50 (HT-29 [6]): 27.1 µM
EC50 (P388 [7]): 12.3 µM

SMILES: O=C1c2ccccc2N[C@H]2[C@H](O)C3C=C(F)C=CC3N12 (some centres undefined)
IC50 [8]: 0.0243 µM

SMILES: CC(C)C[C@H]1NC(=O)[C@@H](C[C@]2(O)c3ccccc3N3C(=O)C(C)(C)N[C@H]32)n2c1nc1ccccc1c2=O
IC50 (HepG2): 24 µM
IC50 (A-375): 75 µM
IC50 (HCT-116 [9]): 86 µM
IC50 (A549): 0.54 µM
IC50 (HL-60 [10]): 52 µg/mL (≈ 104 µM)

SMILES: CCO[C@@H]1c2c([nH]c3ccccc23)-c2nc3ccccc3c(=O)n2[C@H]1O
IC50 (HL-60 [11]): 8.31 µM

SMILES: O=c1c2cc(Cl)ccc2nc2n1CCc1c-2[nH]c2ccccc12
GI50 (OVCAR-4): 1.5 µM

Further lines, with some results ahead:

GI50 (DU-145 [1]): 0.1 µM
SMILES: C[S+]([O-])c1ccc2[nH]c3c(c2c1)CCN1C(=O)c2ccccc2NC31 (centres undefined)

IC50 (HT-29 [4]): 24.7 µM
IC50 (P388 [5]): 12.4 µM
SMILES: O=c1c2cccc(O)c2nc2n1CCc1c-2[nH]c2ccccc12

IC50 (NCI-H1650): 4.53 µM
IC50 (NCI-H1975): 5.59 µM
IC50 (MCF7 [13]): 0.3 µM
SMILES: CN1c2ccccc2C(=O)N2CCc3c([nH]c4ccccc34)C21 (centres undefined)
IC50 (NCI/ADR-RES [12]): 0.47 µM

IC50 (Bel-7402): 62 µg/mL (≈ 182 µM)
SMILES: CC(C)/C=C1\NC(=O)[C@H](CCC(N)=O)n2c1nc1ccccc1c2=O [AURANTIOMIDE C]

IC50 (HCT-116 [14]): 51.1 µM
IC50 (HL-60 [15]): > 100 µM
SMILES: O=c1c2ccccc2nc2n1Cc1cc3ccccc3nc1-2 [LUOTONIN A]
IC50 (HeLa): 3 µM
IC50 (MCF7 [16]): 3 µM
IC50 (NCI/ADR-RES [17]): 3 µM

GI50 (HT-29 [18]): 31.6 µM
GI50 (HCT-116 [19]): 33.9 µM
GI50 (K562 [20]): 25.8 µM
GI50 (HL-60 [22]): 19.8 µM
GI50 (U-251 [23]): 0.02 µM
IC50 (MDA-MB-231): 118 µM
IC50 (SMMC-7721): 18.9 µM
GI50 (DU-145 [26]): 31.7 µM
IC50 (MCF7 [27]): 74.5 µM
GI50 (MCF7 [28]): 19.6 µM
SMILES: O=c1c2ccccc2nc2n1CCc1c-2[nH]c2ccccc12 [RUTAECARPINE]
GI50 (SF-295): 14.1 µM
IC50 (HT-29 [21]): 118 µM
GI50 (NCI-N87 [24]): 8.41 µM
IC50 (P388 [25]): 36.8 µM
IC50 (HUVEC): 16.5 µM

GI50 (NCI-H522): 15 µM
GI50 (SW-620): 5 µM
IC50 (A-431): 9 µM
IC50 (SK-N-DZ): 14 µM
GI50 (SK-OV-3): 2.5 µM
GI50 (U-251 [31]): 100 µM
GI50 (DU-145 [32]): 0.4 µM
SMILES: O=C1c2ccccc2-n2c1nc1ccccc1c2=O [TRYPTANTHRIN]
GI50 (NCI/ADR-RES [29]): 30 µM
GI50 (M14): 15 µM
IC50 (K562 [30]): 6.3 µg/mL (≈ 25.4 µM)
IC50 (U-937): 3.1 µg/mL (≈ 12.5 µM)
GI50 (A498): 0.95 µM
IC50 (SH-SY5Y): 22 µM
IC50 [33]: 15.8 µM
